How the values were obtained:
Adenosine receptor A3 = biological target: T1, Adenosine receptor A3 (Homo sapiens, UniProt P0DMS8); assay type: cell membranes, CHO-K1, Membrane;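 further: radioligand binding assay with AB-MECA serving as the labeled ligand; in other assays of this panel Not Active means under 50% inhibition at 10 µM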
T1 sequence (P0DMS8 whole entry): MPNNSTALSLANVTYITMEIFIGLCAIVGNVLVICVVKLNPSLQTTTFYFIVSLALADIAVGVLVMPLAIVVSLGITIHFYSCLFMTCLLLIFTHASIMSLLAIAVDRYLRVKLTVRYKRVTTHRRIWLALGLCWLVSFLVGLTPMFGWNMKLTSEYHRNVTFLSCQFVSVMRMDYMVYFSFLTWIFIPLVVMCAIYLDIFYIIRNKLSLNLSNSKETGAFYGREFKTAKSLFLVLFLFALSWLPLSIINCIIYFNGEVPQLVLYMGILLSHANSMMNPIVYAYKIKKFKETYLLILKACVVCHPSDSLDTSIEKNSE

Estrogen receptor beta = Estrogen receptor beta (Homo sapiens, UniProt Q92731); details: sf9; further: in other assays of this panel Not Active means under 50% inhibition at 10 µM
Nitric oxide synthase 1 = Nitric oxide synthase 1 (Rattus norvegicus, UniProt P29476); assay type: tissue-based, Cerebellum; further: in other assays of this panel Not Active means under 50% inhibition at 10 µM
[1] = DRUGMATRIX: Sodium/nucleoside co-transporter radioligand binding (ligand: nitrobenzylthioinosine); assay type: cell membranes, Cavia porcellus, Dunkin-Hartley, Cerebral cortex, Membrane; details: Not Active = under 50% inhibition at 10 µM
Cytochrome P450 2D6 = Cytochrome P450 2D6 (Homo sapiens, UniProt P10635); details: bti-tn-5b1-4; further: in other assays of this panel Not Active means under 50% inhibition at 10 µM
[2] = biological target: T2, Alpha-2C adrenergic receptor (Homo sapiens, UniProt P18825); assay: DRUGMATRIX: Adrenergic Alpha-2C radioligand binding (ligand: [3H] MK-912); assay type: cell membranes, Sf9, Membrane
T2 sequence (P18825 whole entry): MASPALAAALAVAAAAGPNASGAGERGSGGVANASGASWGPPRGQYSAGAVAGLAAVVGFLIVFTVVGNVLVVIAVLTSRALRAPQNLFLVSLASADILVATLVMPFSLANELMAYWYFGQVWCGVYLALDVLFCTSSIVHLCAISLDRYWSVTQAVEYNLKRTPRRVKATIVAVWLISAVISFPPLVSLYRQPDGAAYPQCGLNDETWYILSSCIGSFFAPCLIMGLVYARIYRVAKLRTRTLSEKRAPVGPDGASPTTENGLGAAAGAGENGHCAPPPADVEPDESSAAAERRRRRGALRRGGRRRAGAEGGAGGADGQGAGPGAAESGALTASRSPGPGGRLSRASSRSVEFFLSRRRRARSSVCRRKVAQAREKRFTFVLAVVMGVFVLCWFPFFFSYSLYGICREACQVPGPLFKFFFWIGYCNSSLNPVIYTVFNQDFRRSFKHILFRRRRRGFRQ

Histamine H2 receptor = Histamine H2 receptor (Homo sapiens, UniProt P25021); assay type: cell membranes, CHO-K1, Membrane; further: in other assays of this panel Not Active means under 50% inhibition at 10 µM
Sequence of Histamine H2 receptor (P25021 whole entry): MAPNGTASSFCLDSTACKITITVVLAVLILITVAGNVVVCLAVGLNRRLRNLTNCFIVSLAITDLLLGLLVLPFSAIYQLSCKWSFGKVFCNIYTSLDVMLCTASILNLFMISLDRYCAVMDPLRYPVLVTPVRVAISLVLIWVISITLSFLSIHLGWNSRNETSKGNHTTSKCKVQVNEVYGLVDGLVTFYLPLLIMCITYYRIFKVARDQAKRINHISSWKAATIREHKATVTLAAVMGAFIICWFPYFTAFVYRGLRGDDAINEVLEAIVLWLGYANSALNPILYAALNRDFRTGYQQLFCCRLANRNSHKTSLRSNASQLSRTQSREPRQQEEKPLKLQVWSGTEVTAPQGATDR

Sequence of Estrogen receptor beta (Q92731 whole entry): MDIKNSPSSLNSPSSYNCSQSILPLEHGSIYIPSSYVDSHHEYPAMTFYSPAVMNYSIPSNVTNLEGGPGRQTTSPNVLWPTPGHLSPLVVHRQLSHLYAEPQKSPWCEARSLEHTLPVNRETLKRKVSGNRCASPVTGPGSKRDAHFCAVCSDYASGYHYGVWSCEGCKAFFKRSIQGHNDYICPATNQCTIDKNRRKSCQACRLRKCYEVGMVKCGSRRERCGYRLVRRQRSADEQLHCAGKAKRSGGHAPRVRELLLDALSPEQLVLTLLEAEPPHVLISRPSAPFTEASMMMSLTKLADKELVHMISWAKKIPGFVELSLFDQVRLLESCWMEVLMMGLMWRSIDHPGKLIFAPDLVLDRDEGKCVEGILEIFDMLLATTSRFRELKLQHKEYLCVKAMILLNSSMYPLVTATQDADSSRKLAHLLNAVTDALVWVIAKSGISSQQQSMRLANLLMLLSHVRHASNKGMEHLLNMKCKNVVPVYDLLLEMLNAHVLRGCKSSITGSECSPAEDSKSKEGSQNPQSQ
Sequence of Nitric oxide synthase 1 (P29476 whole entry): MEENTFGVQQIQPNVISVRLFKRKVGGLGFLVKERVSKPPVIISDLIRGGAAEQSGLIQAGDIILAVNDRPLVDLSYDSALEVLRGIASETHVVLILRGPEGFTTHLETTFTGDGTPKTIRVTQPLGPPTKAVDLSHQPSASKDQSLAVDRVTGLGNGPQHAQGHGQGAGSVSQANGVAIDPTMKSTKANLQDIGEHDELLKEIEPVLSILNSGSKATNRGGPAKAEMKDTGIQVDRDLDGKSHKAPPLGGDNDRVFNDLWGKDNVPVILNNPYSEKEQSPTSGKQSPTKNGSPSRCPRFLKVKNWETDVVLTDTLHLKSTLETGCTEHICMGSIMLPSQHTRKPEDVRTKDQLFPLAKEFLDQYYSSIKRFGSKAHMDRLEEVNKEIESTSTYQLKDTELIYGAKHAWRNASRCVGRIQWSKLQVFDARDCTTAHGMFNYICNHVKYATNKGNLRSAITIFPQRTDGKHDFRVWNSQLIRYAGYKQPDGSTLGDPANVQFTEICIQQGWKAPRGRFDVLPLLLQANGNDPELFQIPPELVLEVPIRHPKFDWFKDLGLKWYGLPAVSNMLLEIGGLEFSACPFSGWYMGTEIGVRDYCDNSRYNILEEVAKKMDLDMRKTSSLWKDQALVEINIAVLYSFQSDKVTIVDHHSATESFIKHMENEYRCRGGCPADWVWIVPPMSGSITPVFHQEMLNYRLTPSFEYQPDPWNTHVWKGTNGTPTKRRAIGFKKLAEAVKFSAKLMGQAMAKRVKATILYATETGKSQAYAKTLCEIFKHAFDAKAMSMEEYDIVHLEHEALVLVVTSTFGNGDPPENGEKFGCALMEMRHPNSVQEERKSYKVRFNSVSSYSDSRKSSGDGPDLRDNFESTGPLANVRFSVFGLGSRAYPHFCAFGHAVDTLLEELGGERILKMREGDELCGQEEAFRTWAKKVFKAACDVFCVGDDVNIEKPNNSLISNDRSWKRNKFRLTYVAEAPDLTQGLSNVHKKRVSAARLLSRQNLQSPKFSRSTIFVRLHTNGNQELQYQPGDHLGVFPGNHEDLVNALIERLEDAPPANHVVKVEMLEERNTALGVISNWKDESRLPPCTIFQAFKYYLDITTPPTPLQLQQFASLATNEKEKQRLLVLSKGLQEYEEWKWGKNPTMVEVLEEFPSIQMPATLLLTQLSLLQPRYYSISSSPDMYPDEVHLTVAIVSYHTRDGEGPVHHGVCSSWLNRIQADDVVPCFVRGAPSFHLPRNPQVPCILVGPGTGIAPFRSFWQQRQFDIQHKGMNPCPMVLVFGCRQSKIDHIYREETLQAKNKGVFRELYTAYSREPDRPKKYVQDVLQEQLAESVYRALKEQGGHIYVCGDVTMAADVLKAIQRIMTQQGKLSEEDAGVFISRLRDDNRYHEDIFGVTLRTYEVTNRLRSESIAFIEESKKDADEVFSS
Sequence of Cytochrome P450 2D6 (P10635 whole entry): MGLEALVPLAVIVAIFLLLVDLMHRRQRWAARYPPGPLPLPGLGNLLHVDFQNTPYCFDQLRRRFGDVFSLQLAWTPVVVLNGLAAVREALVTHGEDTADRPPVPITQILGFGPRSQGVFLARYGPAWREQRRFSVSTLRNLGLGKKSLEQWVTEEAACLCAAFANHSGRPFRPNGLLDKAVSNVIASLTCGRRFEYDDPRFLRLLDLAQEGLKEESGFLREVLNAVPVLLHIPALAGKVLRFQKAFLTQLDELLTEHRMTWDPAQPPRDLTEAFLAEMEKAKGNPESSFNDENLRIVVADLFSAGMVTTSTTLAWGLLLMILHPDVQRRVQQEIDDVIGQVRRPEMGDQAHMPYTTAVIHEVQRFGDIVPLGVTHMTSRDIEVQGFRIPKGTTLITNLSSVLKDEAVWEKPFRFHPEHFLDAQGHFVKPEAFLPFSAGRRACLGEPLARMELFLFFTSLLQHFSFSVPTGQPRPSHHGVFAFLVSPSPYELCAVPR

| Compound | IC50 (Adenosine receptor A3; cho-k1) | IC50 (Estrogen receptor beta) | IC50 (Nitric oxide synthase 1) | IC50 [1] | Ki [1] | IC50 (Cytochrome P450 2D6) | Ki (Cytochrome P450 2D6) | IC50 ([2]; sf9) | IC50 (Histamine H2 receptor; cho-k1) | Ki (Adenosine receptor A3; cho-k1) | Ki (Estrogen receptor beta) | Ki (Nitric oxide synthase 1) | Ki ([2]; sf9) | Ki (Histamine H2 receptor; cho-k1) | IC50 ([2]; read-out: IC50) | Ki ([2]; read-out: Ki) | IC50 (Histamine H2 receptor; read-out: IC50) | Ki (Histamine H2 receptor; read-out: Ki) | IC50 (Adenosine receptor A3; read-out: IC50) | Ki (Adenosine receptor A3; read-out: Ki) |
| --- | --- | --- | --- | --- | --- | --- | --- | --- | --- | --- | --- | --- | --- | --- | --- | --- | --- | --- | --- | --- |
| COc1ccc(C[C@H](N)C(=O)N[C@H]2[C@@H](O)[C@H](n3cnc4c(N(C)C)ncnc43)O[C@@H]2CO)cc1 [PUROMYCIN] | Not Active | Not Active | Not Active | Not Active | Not Active | Not Active | Not Active | Not Active | Not Active | – | – | – | – | – | – | – | – | – | – | – |
| CARBOXYMETHYLCELLULOSE | Not Active | Not Active | Not Active | Not Active | Not Active | Not Active | Not Active | Not Active | Not Active | Not Active | Not Active | Not Active | Not Active | Not Active | – | – | – | – | – | – |
| CC(CN1c2ccccc2Sc2ccccc21)N(C)C (stereo not drawn) [PROMETHAZINE] | Not Active | Not Active | Not Active | Not Active | Not Active | Not Active | Not Active | – | – | – | – | – | – | – | 2430 nM | 353 nM | 1160 nM | 1150 nM | – | – |
| NCC(CC(=O)O)c1ccc(Cl)cc1 (stereo not drawn) [BACLOFEN] | Not Active | Not Active | Not Active | Not Active | Not Active | Not Active | Not Active | Not Active | Not Active | – | – | – | – | – | – | – | – | – | – | – |
| CN(CCOc1ccc(C[C@H](Nc2ccccc2C(=O)c2ccccc2)C(=O)O)cc1)c1ccccn1 | – | Not Active | Not Active | Not Active | Not Active | Not Active | Not Active | Not Active | Not Active | – | – | – | – | – | – | – | – | – | 14300 nM | 8090 nM |
| COPPER(II) OXIDE | Not Active | Not Active | Not Active | Not Active | Not Active | Not Active | Not Active | Not Active | Not Active | Not Active | Not Active | Not Active | Not Active | Not Active | – | – | – | – | – | – |
| Cl.NC[C@H]1CC[C@H](C(=O)Oc2ccc(CCC(=O)O)cc2)CC1 [CETRAXATE HYDROCHLORIDE] | Not Active | Not Active | Not Active | Not Active | Not Active | Not Active | Not Active | Not Active | Not Active | – | – | – | – | – | – | – | – | – | – | – |
| COc1ccccc1OCCNCC(O)COc1cccc2[nH]c3ccccc3c12 (stereo not drawn) [CARVEDILOL] | Not Active | Not Active | Not Active | Not Active | Not Active | Not Active | Not Active | – | Not Active | – | – | – | – | – | 90 nM | 13 nM | – | – | – | – |
| C[C@H](C(=O)O)c1ccc2oc(-c3ccc(F)cc3)nc2c1 [FLUNOXAPROFEN] | Not Active | Not Active | Not Active | Not Active | Not Active | Not Active | Not Active | Not Active | Not Active | – | – | – | – | – | – | – | – | – | – | – |
| CCN1CCN(c2cc3c(cc2F)c(=O)c(C(=O)O)cn3C2CC2)CC1 [ENROFLOXACIN] | Not Active | Not Active | Not Active | Not Active | Not Active | Not Active | Not Active | Not Active | Not Active | – | – | – | – | – | – | – | – | – | – | – |
| C[C@]12CC[C@@H](O)C[C@@H]1CC[C@@H]1[C@@H]2CC[C@]2(C)C(=O)CC[C@@H]12 [ANDROSTERONE] | Not Active | Not Active | Not Active | Not Active | Not Active | Not Active | Not Active | Not Active | Not Active | – | – | – | – | – | – | – | – | – | – | – |
| O=C(NCCN1CCOCC1)c1ccc(Cl)cc1 [MOCLOBEMIDE] | Not Active | Not Active | Not Active | Not Active | Not Active | Not Active | Not Active | Not Active | Not Active | – | – | – | – | – | – | – | – | – | – | – |
| NC(=O)CN1CCCC1=O | Not Active | Not Active | Not Active | Not Active | Not Active | Not Active | Not Active | Not Active | Not Active | – | – | – | – | – | – | – | – | – | – | – |
| CCO [ALCOHOL] | Not Active | Not Active | Not Active | Not Active | Not Active | Not Active | Not Active | Not Active | Not Active | – | – | – | – | – | – | – | – | – | – | – |
| COc1ccc(Cl)cc1C(=O)NCCc1ccc(S(=O)(=O)NC(=O)NC2CCCCC2)cc1 [GLYBURIDE] | Not Active | Not Active | Not Active | Not Active | Not Active | Not Active | Not Active | Not Active | Not Active | – | – | – | – | – | – | – | – | – | – | – |
| COc1cc(NC(C)CCCN)c2ncccc2c1 (stereo not drawn) [PRIMAQUINE] | Not Active | Not Active | Not Active | Not Active | Not Active | Not Active | Not Active | Not Active | Not Active | – | – | – | – | – | – | – | – | – | – | – |
| c1ccc2c(c1)Nc1ccccc1S2 [PHENOTHIAZINE] | – | Not Active | Not Active | Not Active | Not Active | Not Active | Not Active | Not Active | Not Active | – | – | – | – | – | – | – | – | – | 25600 nM | 14500 nM |
| OC[C@H]1OC2C3[C@@H](CO)OC(O[C@H]4[C@H](O)[C@@H](O)[C@@H](O[C@H]5[C@H](O)[C@@H](O)[C@@H](O[C@H]6[C@H](O)[C@@H](O)[C@@H](O[C@H]7[C@H](O)[C@@H](O)[C@@H](O[C@H]8[C@H](O)[C@@H](O)[C@@H](O[C@H]9[C@H](O)[C@@H](O)C(OC1[C@H](O)[C@H]2O)O[C@@H]9CO)O[C@@H]8CO)O[C@@H]7CO)O[C@@H]6CO)O[C@@H]5CO)O[C@@H]4CO)[C@H](O)[C@H]3O | Not Active | Not Active | Not Active | Not Active | Not Active | Not Active | Not Active | Not Active | Not Active | – | – | – | – | – | – | – | – | – | – | – |
| CC(C)Cc1ccc([C@H](C)C(=O)O)cc1 [DEXIBUPROFEN] | Not Active | Not Active | Not Active | Not Active | Not Active | Not Active | Not Active | Not Active | Not Active | – | – | – | – | – | – | – | – | – | – | – |
| NC(=O)NC(=O)Cc1ccccc1 [PHENACEMIDE] | Not Active | Not Active | Not Active | Not Active | Not Active | Not Active | Not Active | Not Active | Not Active | – | – | – | – | – | – | – | – | – | – | – |
| Nc1nc(N)c2nc(CNc3ccc(C(=O)N[C@@H](CCC(=O)O)C(=O)O)cc3)cnc2n1 [AMINOPTERIN] | Not Active | Not Active | Not Active | Not Active | Not Active | Not Active | Not Active | Not Active | Not Active | – | – | – | – | – | – | – | – | – | – | – |
| CC(C)(C#N)c1cc(Cn2cncn2)cc(C(C)(C)C#N)c1 [ANASTROZOLE] | Not Active | Not Active | Not Active | Not Active | Not Active | Not Active | Not Active | Not Active | Not Active | – | – | – | – | – | – | – | – | – | – | – |

Reference: ChEMBL document CHEMBL1909046, “DrugMatrix in vitro pharmacology data”
